Assay results as given in US20200172913A1, “PEPTIDES AND NANOPARTICLES FOR INTRACELLULAR DELIVERY OF VIRUS” (priority 2017, published 2020).
Where no end group is shown, it is not given here. PEG = not defined here; βAla = NCCC(=O)O

Tests used:
[1] = tested on: 293 T cells; experiment: AAV-2/PEP-1 peptide particle stability (serum, heparin), GFP expressing cells by flow cytometry; type: cell-based; conditions: for effect of the modification on AAV/PEP-1 complex stability in serum: high concentration of serum; for reduction of the level of GFP expressing cells (efficacy): particles incubated 1 hour in 50% serum, 50 μM peptide, AAV-2 MOI of 300; for increase of efficacy: standard conditions (no serum, no heparin), vs unmodified PEP-1
Protocol: Stock solutions of peptides were prepared at 2 mg/mL in distilled water or 5% DMSO and sonicated for 10 min in a water bath sonicator then diluted just before use. AAV-2 encoding green fluorescent protein at MOI of 300 was pre-incubated in low salt medium with PEP-1 peptides containing either a specific targeting motif, a PEG or Dopamine moiety at a concentration of 50 μM for 30 min. The AAV-2/peptide particle stability was evaluated in different conditions. Particles were incubated for 1 hour in DMEM medium containing 10, 20 to 50% serum (FSC) or in the presence of heparin (5 and 10 μg). Then AAV alone or PEP-1/AAV complexes were added to cultured 293 T cells in a 24 well plate format. Cells were treated with either free AAV-2 or Peptide/AAV-2 complexes for 4 h, and then the medium was replaced with fresh medium. Viral mediated transgene expression was monitored 2 days post-infection. GFP expressing cells were detected by flow cytometry.

[2] = tested on: HCN2 cells; experiment: AAV-8-GFP transduction with CPPs, flow cytometry; type: cell-based, human; conditions: 200 μM CPP, AAV-8 MOI of 1000, HCN2; 5% in the absence of CPP
Protocol: (§1) In this example different AAV serotypes including AAV 1, AAV2, AAV5, AAV6, AAV8 and AAV9 were tested against human hepatocytes (HepG2) and human neuronal cells (HCN2) in the presence or in the absence of CPPs including ADGN-103a, ADGN-103b, ADGN-100, ADGN-109, ADGN-106, PEP-1, PEP-2, CADY, and TAT-HA2.
(§2) AAV-1, AAV-2, AAV-5, and AAV-6 viruses encoding green fluorescent protein were obtained from Cell Biolabs Inc and AAV-8 from Vector Biolabs. Stock solutions of virus were obtained at 1χ10^13 GC/ml in PBS/0.01% and diluted 50-fold to 2×10^11 GC/ml before use.
(§3) AAV-1, AAV-2, AAV-5, and AAV6 encoding green fluorescent protein were used at low MOI of 500 (1-2×10^7 PFU) and AAV-8 at MOI of 1000 (2-4×10^7 PFU). HepG2 and HCN2 cells (1 10^6 cells per well) were cultured in a 24 well plate culture dish format. For MOI of 1000, 5 μl of AAV virus diluted solutions were preincubated in PBS with increasing concentration of CPPs ranging from 0.1 to 200 μM for 30 min. For MOI of 500, 2.5 μl of AAV virus diluted solutions were preincubated in PBS with increasing concentration of CPPs ranging from 0.1 to 200 μM for 30 min. 200 μl of AAV or CPP/AAV complex solutions were added to cultured cells (1×10^6 cells per well). Cells are treated with either free AAV or CPP/AAV complexes for 4 h. and then the medium is replaced with fresh medium.
(§4) Viral mediated transgene expression was monitored by flow cytomety 2 days post-infection in HepG2 and Human neuronal HCN2. The percentage of GFP expressing cells were detected by flow cytometry and the increase of AAV infectivity was calculated based on the number of GFP-positive cells. Results are reported in FIGS. 5A-5D, 6A-6D, 7A-7D, 8A-8D, and 9A-9D.

[3] = tested on: HepG2 cells; experiment: AAV-8-GFP transduction with CPPs, flow cytometry; type: cell-based, human; conditions: 200 μM CPP, AAV-8 MOI of 1000, HepG2; 5% in the absence of CPP
Protocol: as §1, §2, §3, §4

[4] = tested on: HCN2 cells; experiment: AAV-6-GFP transduction with CPPs, flow cytometry; type: cell-based, human; conditions: for increase of AAV-6 efficiency: 200 μM CPP, MOI of 500, HCN2; for cells expressing GFP: 200 μM of CPP, AAV-6 MOI of 500, HCN2, 4% in the absence of CPP
Protocol: as §1, §2, §3, §4

[5] = tested on: HepG2 cells; experiment: AAV-6-GFP transduction with CPPs, flow cytometry; type: cell-based, human; conditions: 200 μM CPP; for cells expressing GFP: AAV-6 MOI of 500, HepG2, 5% in the absence of CPP; for increase of AAV-6 efficiency: MOI of 500, HepG2
Protocol: as §1, §2, §3, §4

[6] = tested on: HCN2 cells; experiment: AAV-1-GFP transduction with CPPs, flow cytometry; type: cell-based, human; conditions: 200 μM CPP; for cells expressing GFP: AAV-1 MOI of 500, HCN2, 5% in the absence of CPP; for increase of AAV-1 efficiency: MOI of 500, HCN2
Protocol: as §1, §2, §3, §4

[7] = tested on: HepG2 cells; experiment: AAV-1-GFP transduction with CPPs, flow cytometry; type: cell-based, human; conditions: 200 μM CPP; for cells expressing GFP: AAV-1 MOI of 500, HepG2, 5% in the absence of CPP
Protocol: as §1, §2, §3, §4

[8] = tested on: HCN2 cells; experiment: AAV-5-GFP transduction with CPPs, flow cytometry; type: cell-based, human; conditions: 200 μM CPP; for cells expressing GFP: AAV-5 MOI of 500, HCN2, 5% in the absence of CPP; for increase of AAV-5 efficiency: MOI of 500, HCN2
Protocol: as §1, §2, §3, §4

[9] = tested on: HepG2 cells; experiment: AAV-5-GFP transduction with CPPs, flow cytometry; type: cell-based, human; conditions: 200 μM CPP; for cells expressing GFP: AAV-5 MOI of 500, HepG2, 5% in the absence of CPP; for increase of AAV-5 efficiency: MOI of 500, HepG2
Protocol: as §1, §2, §3, §4

[10] = tested on: HCN2 cells; experiment: AAV-2-GFP transduction with CPPs, flow cytometry; type: cell-based, human; conditions: 200 μM CPP; for cells expressing GFP: AAV-2 MOI of 500, HCN2, 4% in the absence of CPP; for increase of AAV-2 efficiency: MOI of 500, HCN2
Protocol: as §1, §2, §3, §4

[11] = tested on: HepG2 cells; experiment: AAV-2-GFP transduction with CPPs, flow cytometry; type: cell-based, human; conditions: 200 μM CPP; for cells expressing GFP: AAV-2 MOI of 500, HepG2, 4% in the absence of CPP; for increase of AAV-2 efficiency: MOI of 500, HepG2
Protocol: as §1, §2, §3, §4

[12] = tested on: HepG2 and HCN2 cells; experiment: AAV-2-GFP transduction with CPPs, statements for both cell lines; type: cell-based, human; conditions: for impact on AAV-2 infectivity: 1 μM concentration, both cell lines; for share of the final improvement obtained with 200 μM: 10 μM concentration of CPP, AAV-2, both cell lines
Protocol: as §1, §2, §3, §4

[13] = tested on: HepG2 and HCN2 cells; experiment: AAV-8-GFP transduction with CPPs, statements for both cell lines; type: cell-based, human; conditions: for impact on AAV-8 infectivity: 1 μM concentration, both cell lines; for share of the final improvement obtained at 200 μM: 10 μM concentration, AAV-8, both cell lines
Protocol: as §1, §2, §3, §4

[14] = tested on: HepG2 and HCN2 cells; experiment: AAV-6-GFP transduction with CPPs, statements for both cell lines; type: cell-based, human; conditions: for impact on AAV-6 infectivity: 1 μM concentration, both cell lines; for share of the final improvement obtained at 200 μM: 10 μM concentration, AAV-6, both cell lines
Protocol: as §1, §2, §3, §4

[15] = tested on: HepG2 and HCN2 cells; experiment: AAV-5-GFP transduction with CPPs, statements for both cell lines; type: cell-based, human; conditions: for impact on AAV-5 infectivity: 1 μM concentration, both cell lines; for share of the final improvement obtained at 200 μM: 10 μM concentration, AAV-5, both cell lines
Protocol: as §1, §2, §3, §4

[16] = tested on: HepG2 and HCN2 cells; experiment: AAV-1-GFP transduction with CPPs, statements for both cell lines; type: cell-based, human; conditions: for impact on AAV-1 infectivity: 1 μM concentration, both cell lines; for share of the final improvement obtained with 200 μM: 10 μM concentration of CPP, AAV-1, both cell lines
Protocol: as §1, §2, §3, §4

Row | Substance | effect of the modification on AAV/PEP-1 complex stability in serum [1] | reduction of the level of GFP expressing cells (efficacy) [1] [%] | cells expressing GFP [2] [%] | cells expressing GFP [3] [%] | increase of AAV-6 efficiency [4] [fold] | cells expressing GFP [4] [%] | cells expressing GFP [5] [%] | cells expressing GFP [6] [%] | increase of AAV-1 efficiency [6] [fold] | cells expressing GFP [7] [%] | cells expressing GFP [8] [%] | increase of AAV-5 efficiency [8] [fold] | cells expressing GFP [9] [%] | cells expressing GFP [10] [%] | increase of AAV-2 efficiency [10] [fold] | cells expressing GFP [11] [%] | impact on AAV-2 infectivity [12] | share of the final improvement obtained with 200 μM [12] | impact on AAV-8 infectivity [13] | share of the final improvement obtained at 200 μM [13] | also measured
1 | DOPA-GGGG-KETWWETWWTEWSQPKKKRKV (GGGGKETWWETWWTEWSQPKKKRKV; not fully specified (N-terminus)) [PEP-1-DOPA, Dopamine added to the N-terminus of PEP-1 using a Gly4 linker] | stabilized | 30 | – | – | – | – | – | – | – | – | – | – | – | – | – | – | – | – | – | – | increase of efficacy [1]: 40%
2 | GLWRALWRLLRSLWRLLWKV [CADY, reference compound] | – | – | 12 | 15 | 3 | 18 | 29 | 22 | 3 | 27 | 10 | 2 | 11 | 20 | 3 | 23 | – | – | – | – | increase of AAV-5 efficiency [9]: 3 fold; increase of AAV-2 efficiency [11]: 5 fold
3 | GYVSK-GGGGSKETWWETWWTEWSQPKKKRKV (Ac-GYVSKGGGGSKETWWETWWTEWSQPKKKRKV-cysteamide) [PEP-1 T1] | significantly protected | 27 | – | – | – | – | – | – | – | – | – | – | – | – | – | – | – | – | – | – | –
4 | KETWWETWWTEWSQPKKKRKVGGGG-GYVSK (Ac-KETWWETWWTEWSQPKKKRKVGGGGGYVSK-cysteamide) [PEP-1 T2] | only a moderate effect | – | – | – | – | – | – | – | – | – | – | – | – | – | – | – | – | – | – | – | –
5 | PEG-βAKETWWETWWTEWSQPKKKRKV ({PEG-βAla}-KETWWETWWTEWSQPKKKRKV; reading uncertain) [PEP-1-PEG, PEP-1 mono-PEGylated with 5 kDa PEG at the N-terminal beta Alanine] | stabilized | 30 | – | – | – | – | – | – | – | – | – | – | – | – | – | – | – | – | – | – | increase of efficacy [1]: 40%
6 | βAKWFERWFREWPRKRR (not fully specified (residue 1, N-terminus); printed as βAKWFERWFREWPRKRR) [ADGN-103a] | – | – | 49 | 52 | – | 65 | 94 | 75 | – | 76 | 45 | – | 60 | 71 | – | 98 | significant impact | about 70% | significant impact | about 60% | impact on AAV-6 infectivity [14]: significant impact; share of the final improvement obtained at 200 μM [14]: about 70%; impact on AAV-5 infectivity [15]: significant impact; share of the final improvement obtained at 200 μM [15]: about 50%; impact on AAV-1 infectivity [16]: significant impact; share of the final improvement obtained with 200 μM [16]: about 60%
7 | βAKWRSAGWRWRLWRVRSWSR (not fully specified (residue 1, N-terminus); printed as βAKWRSAGWRWRLWRVRSWSR) [ADGN-100] | – | – | 23 | 26 | 15 | 48 | 59 | 52 | 12 | 50 | 22 | 5 | 39 | 59 | 15 | 57 | significant impact | about 70% | significant impact | about 60% | impact on AAV-6 infectivity [14]: significant impact; share of the final improvement obtained at 200 μM [14]: about 70%; increase of AAV-6 efficiency [5]: 17 fold; increase of AAV-1 efficiency ([7]; MOI of 500, HepG2): 13 fold; impact on AAV-5 infectivity [15]: significant impact; share of the final improvement obtained at 200 μM [15]: about 50%; increase of AAV-5 efficiency [9]: 10 fold; impact on AAV-1 infectivity [16]: significant impact; share of the final improvement obtained with 200 μM [16]: about 60%; increase of AAV-2 efficiency [11]: 20 fold
8 | βAKWWERWWREWPRKRR (not fully specified (residue 1, N-terminus); printed as βAKWWERWWREWPRKRR) [ADGN-103b] | – | – | 58 | 60 | 22 | 67 | 98 | 78 | – | 81 | 48 | – | 64 | 81 | – | 96 | significant impact | about 70% | significant impact | about 60% | impact on AAV-6 infectivity [14]: significant impact; share of the final improvement obtained at 200 μM [14]: about 70%; increase of AAV-6 efficiency [5]: 30 fold; impact on AAV-5 infectivity [15]: significant impact; share of the final improvement obtained at 200 μM [15]: about 50%; impact on AAV-1 infectivity [16]: significant impact; share of the final improvement obtained with 200 μM [16]: about 60%
9 | βALWRALWRLWRSLWRLLWKA (not fully specified (residue 1, N-terminus); printed as βALWRALWRLWRSLWRLLWKA) [ADGN-106] | – | – | – | – | 7 | – | – | – | 7 | – | – | 4 | – | – | 7 | – | – | – | – | – | increase of AAV-6 efficiency [5]: about 10 fold
